Laboratory results published in PubChem BioAssay (NCI).
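Interpolation was linear, between the two tested concentrations surrounding the appropriate level; five concentrations were tested over 48 hours in 96-well plates. Here, GI50 denotes the concentration required for 50% inhibition of growth. TGI denotes the concentration required for complete inhibition of growth.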

Legend:
Assay in all cases: NCI anticancer screen, dose series, 48 h
A498 renal = test system: A498 renal
SNB-75 CNS = test system: SNB-75 CNS
NCI/ADR-RES ovarian = test system: NCI/ADR-RES ovarian
ACHN renal = test system: ACHN renal
PC-3 prostate = test system: PC-3 prostate
HT29 colon = test system: HT29 colon
MDA-N = test system: MDA-N
CCRF-CEM leukemia = test system: CCRF-CEM leukemia
HOP-92 NSCLC = test system: HOP-92 NSCLC
HS 578T breast = test system: HS 578T breast

Row | SMILES | TGI (A498 renal) | TGI (SNB-75 CNS) | TGI (NCI/ADR-RES ovarian) | TGI (ACHN renal) | TGI (PC-3 prostate) | TGI (HT29 colon) | TGI (MDA-N) | TGI (CCRF-CEM leukemia) | TGI (HOP-92 NSCLC) | TGI (HS 578T breast) | GI50 (A498 renal) | GI50 (ACHN renal) | GI50 (HS 578T breast) | GI50 (PC-3 prostate) | GI50 (HT29 colon) | GI50 (CCRF-CEM leukemia)
1 | C=CCc1cccc(/C(O)=C/C(=O)/C=C/c2ccccc2Cl)c1O | 45 µM | > 100 µM | 45.9 µM | > 100 µM | 85 µM | 42.5 µM | > 100 µM | 95.1 µM | 55.2 µM | – | – | – | – | – | – | –
2 | CN(CCCN1CCCC1)CCCN(C)C(=O)Cc1ccc(Cl)c(Cl)c1 | 28.1 µM | 42.6 µM | > 100 µM | > 68.3 µM | > 74.4 µM | 17.5 µM | 16 µM | 23.8 µM | 35.9 µM | 36 µM | – | – | – | – | – | –
3 | CCOC(=O)c1cccc(N=Nc2ncc(/C=C/C(=O)OC)[nH]2)c1 | 67.8 µM | 92.4 µM | > 100 µM | 72 µM | > 100 µM | > 100 µM | > 100 µM | > 100 µM | > 100 µM | > 100 µM | – | – | – | – | – | –
4 | COc1ccc(-n2nnc3c(C#N)c(C)c(-c4ccccc4)n3c2=O)cc1 | > 100 µM | > 29.2 µM | 21.1 µM | > 100 µM | > 100 µM | > 100 µM | – | – | > 100 µM | > 100 µM | – | – | – | – | – | –
5 | CC(NC(=O)c1ccc(OP(=O)(OCc2ccc([N+](=O)[O-])o2)N(C)CCCCCl)cc1)c1ccc(OCC2CCCCC2)c(C(N)=O)c1 (centres undefined) | 63.2 µM | 25.3 µM | > 100 µM | > 35.4 µM | 49.1 µM | 7.85 µM | 24 µM | 0.842 µM | 4.75 µM | > 41.6 µM | – | – | – | – | – | –
6 | COc1cc(/C=C2\CC3C4CC[C@H]5C[C@@H](O)CC[C@]5(C)C4CC[C@]3(C)\C2=N\O)cc(OC)c1OC (some centres undefined) | 31.1 µM | > 100 µM | 48.6 µM | 39.8 µM | 55.1 µM | > 100 µM | 41.9 µM | > 100 µM | > 100 µM | 75.7 µM | – | – | – | – | – | –
7 | CS(=O)(=O)Nc1ccc(NCc2cnc3ccc4[nH]cccc4c23)cc1 | 51.8 µM | 61.3 µM | > 100 µM | > 100 µM | 48.1 µM | > 100 µM | 37.5 µM | 58.5 µM | > 100 µM | 57 µM | – | – | – | – | – | –
8 | NC(N)=N/N=C/c1c(-c2cccs2)nc2n1CCS2 | > 100 µM | – | – | 40.9 µM | 36 µM | 30.9 µM | – | 34 µM | – | 77.4 µM | 5.65 µM | 20.8 µM | 18.8 µM | 19.7 µM | 17.2 µM | 17.2 µM
